Counter-ions that a name gives are not always drawn. Like-named read-outs stand apart in the source and are kept apart here.
Assays:
[1] = cited from earlier work; for biodegradation in the CBT, test prolonged: prolonged to 40 days; for biodegradability in the CBT: result in words
[2] = cited from earlier work; for biodegradability in the ZWT: result in words
[3] = computer model, binding to sludge solids; cited from earlier work
[4] = result in words; cited from earlier work
[5] = result in words; cited from earlier work; remark: listed apart in the source
[6] = eight German STPs; cited from earlier work
[7] = result in words; cited from earlier work; remark: listed apart in the source
[8] = laboratory-scale activated sludge plants; cited from earlier work
[9] = wastewater treatment plant; cited from earlier work
[10] = epilimnion of Lake Greifensee; cited from earlier work
[11] = cited from earlier work
[12] = cited from earlier work; remark: listed apart in the source
fecal coliforms = experiment: sulfur dioxide treatment of effluent, Saticoy-Jose Florez Wastewater Treatment Plant; settings: effluent undergoing sulfur dioxide treatment
From the text: The destruction of odor causing microbes feeding on the water stops further CO2 production, and may be employed where the wastewater treatment plant is mandated to reduce these carbon dioxide emissions. Also, if there is significant carbon in the suspended solids, most perchlorates and chlorates will have been reduced on contact with the solids. The separation and disposal of the solids also removes most of the adsorbed microbes. Under this wastewater treatment scenario, the sulfur dioxide reduction treatment is more for acidification, inactivating of certain chemicals such as Chromium VI susceptible to acid reduction, adding sulfurous and sulfate ions, and chemical dewatering of the solids. […] This disinfection level is suitable in California for gray water land application. Consequently, the sulfur dioxide was used primarily to acid reduce pharmaceuticals, and condition the solids and separated wastewater for land application.

[13] = result in words; cited from earlier work; remark: listed apart in the source
[14] = result in words; cited from earlier work; remark: listed apart in the source
[15] = pilot sewage plant and anoxic biofilm reactor

**Q.** With `Nc1ccn([C@@H]2O[C@H](CO)[C@@H](O)C2(F)F)c(=O)n1` [gemcitabine] as the molecule, how does the “biodegradation in the CBT, test prolonged” value [1] read?
**A.** 45%

**Q.** And the “degree of biodegradation, test prolonged” value ([2]; prolonged to 40 days, test read from the sentence before)?
**A.** 80%

**Q.** For `C=C[C@H]1C[N@@]2CC[C@H]1C[C@H]2[C@H](O)c1ccnc2ccc(OC)cc12` [quinine sulfate], which predicted sorption potential [3] is on record?
**A.** high capacity to bind to solids

**Q.** For `CN(CC(O)CO)C(=O)c1c(I)c(N)c(I)c(C(=O)NCC(O)CO)c1I` (stereo not shown) [5-amino-N,N′bis(2,3-dihydroxypropyl)-2,4,6-triiodo-N-methyliso-phthalamide], which photodegradation [4] is on record?
**A.** faster rate of photolysis than the parent compound

**Q.** For `O=C(O)c1ccccc1O` [salicylic acid], which biodegradability [5] is on record?
**A.** biodegradable

**Q.** With `CC(=O)Nc1c(I)c(NC(C)=O)c(I)c(C(=O)O)c1I` [diatrizoate] as the molecule, how does the “degradation or absorption during sewage treatment” value [6] read?
**A.** not significantly degraded or absorbed

**Q.** Which light sensitivity [7] does the source give for `CN(C/C=C/c1ccccc1)Cc1cccc2ccccc12` [naftifine] here?
**A.** light sensitive

**Q.** For `O=P1(N(CCCl)CCCl)NCCCO1` (stereo not shown) [cyclophosphamide], which “biodegradability in the CBT” value [1] is on record?
**A.** poor biodegradability

**Q.** What about the “biodegradability in the ZWT” value [2] of the same molecule?
**A.** poor biodegradability

**Q.** What about the biodegradability [8] of the same molecule?
**A.** poor biodegradability

**Q.** For `Cc1cccc(N(C)C(=S)Oc2ccc3ccccc3c2)c1` [tolnaftate], which light sensitivity [7] is on record?
**A.** light sensitive

**Q.** Which “fate: biological degradation” value [9] does the source give for `Oc1cc(Cl)ccc1Oc1ccc(Cl)cc1Cl` [triclosan, 2,4,4′-trichloro2′-hydroxyphenyl ether] here?
**A.** 79%

**Q.** What about the “overall elimination rate due to photochemical degradation” value [10] of the same molecule?
**A.** 0.03 day⁻¹

**Q.** With `O=c1[nH]cc(F)c(=O)[nH]1` [5-fluorouracil] as the molecule, how does the “biodegradability in the CBT” value [1] read?
**A.** not biodegradable

**Q.** What about the “biodegradability in the ZWT” value [2] of the same molecule?
**A.** not biodegradable

**Q.** For `CN(C)CCn1nnnc1SCC1=C(C(=O)O)N2C(=O)[C@@H](NC(=O)Cc3csc(N)n3)[C@H]2SC1` [cefotiam], which “biodegradability in the CBT” value [1] is on record?
**A.** None of the test compounds met the criteria for ready biodegradability

**Q.** With `CC(=O)Nc1ccc(O)cc1` [paracetamol] as the molecule, how does the biodegradability [5] read?
**A.** biodegradable

**Q.** For `O=C(O)Cc1ccccc1Nc1c(Cl)cccc1Cl` [diclofenac], which biological degradation [11, 15] is on record?
**A.** partially degraded

**Q.** And the degraded ([12]; entering a Swiss lake)?
**A.** up to 90%

**Q.** And the “reduction on incubation in the dark” value ([12]; fortified lake water)?
**A.** no reduction

**Q.** With `Cc1cccc(Nc2ccccc2C(=O)O)c1C` [mefenamic acid] as the molecule, how does the predicted sorption potential [3] read?
**A.** high capacity to bind to solids

**Q.** With `CN(C(=O)CO)c1c(I)c(C(=O)NCC(O)CO)c(I)c(C(=O)NCC(O)CO)c1I` (stereo not shown) [iomeprol] as the molecule, how does the “degradation or absorption during sewage treatment” value [6] read?
**A.** not significantly degraded or absorbed

**Q.** With `Oc1ccc(Cl)c2cccnc12` [cloxiquin] as the molecule, how does the light sensitivity [7] read?
**A.** light sensitive

**Q.** For `S=C1SCN(Cc2ccccc2)CN1Cc1ccccc1` [sulbentine], which light sensitivity [7] is on record?
**A.** light sensitive

**Q.** With `COCC(=O)Nc1c(I)c(C(=O)NCC(O)CO)c(I)c(C(=O)N(C)CC(O)CO)c1I` (stereo not shown) [iopromide] as the molecule, how does the photodegradation [4] read?
**A.** amenable to photodegradation

**Q.** What about the “degradation or absorption during sewage treatment” value [6] of the same molecule?
**A.** not significantly degraded or absorbed

**Q.** Which “degradation or absorption during sewage treatment” value [6] does the source give for `C[C@H](O)C(=O)Nc1c(I)c(C(=O)NC(CO)CO)c(I)c(C(=O)NC(CO)CO)c1I` [iopamidol] here?
**A.** not significantly degraded or absorbed

**Q.** Which “biodegradation in the CBT, test prolonged” value [1] does the source give for `CC1(C)S[C@@H]2[C@H](NC(=O)Cc3ccccc3)C(=O)N2[C@H]1C(=O)O` [penicillin G] here?
**A.** 35%

**Q.** What about the “biodegradation in the CBT (removed / biodegraded)” value ([1]; regular test period, 28 days printed for penicillin G) of the same molecule?
**A.** approximately 27%

**Q.** What about the “biodegradability in the CBT” value [1] of the same molecule?
**A.** None of the test compounds met the criteria for ready biodegradability

**Q.** For `O=S=O` [sulfur dioxide], which “fecal coliforms in treated effluent” value (fecal coliforms) is on record?
**A.** < 2 MPN

**Q.** For `C[C@@H](O)[C@H]1C(=O)N2C(C(=O)O)=C(S[C@@H]3CN[C@H](C(=O)N(C)C)C3)[C@H](C)[C@H]12` [meropenem], which “biodegradability in the CBT” value [1] is on record?
**A.** None of the test compounds met the criteria for ready biodegradability

**Q.** Which direct photolysis [13] does the source give for `CN/C(=N/CCSCc1nc[nH]c1C)NC#N` [cimetidine] here?
**A.** resistant to direct photolysis

**Q.** With `O=C(O)c1cn(C2CC2)c2cc(N3CCNCC3)c(F)cc2c1=O` [ciprofloxacin] as the molecule, how does the biodegradability [14] read?
**A.** none of the compounds were biodegraded

**Q.** And the “biodegradability in the CBT” value [1]?
**A.** None of the test compounds met the criteria for ready biodegradability

**Q.** With `CC(C)Cc1ccc(C(C)C(=O)O)cc1` (stereo not shown) [ibuprofen] as the molecule, how does the biological degradation ([11]; oxic biofilm reactor) read?
**A.** high degree of degradation

**Q.** What about the biological degradation [11, 15] of the same molecule?
**A.** partially degraded

— patent publication US8580122B2, “Hybrid chemical/mechanical method and apparatus for inactivating and removing pharmaceuticals and other contaminants from water” (priority 2004, dated 2013)
